Laboratory results: patent US20250051805A1, “METHODS” (Commonwealth Scientific and Industrial Research Organisation, priority 2021, published 2025)

Tests used:
[1] = system: E. coli expressing the A. marina VHPO gene; assay: Bromoform production by E. coli expressing A. marina VHPO with 1,3-dicarbonyl substrates of Table 4; format: cell-based, Escherichia coli; conditions: 1 mM substrate, 100 mM H2O2, 24 hours room temperature; FIG. 8
Method: A sample with no additional substrate was also run as a control experiment. Samples (1 mL) were incubated in sealed tubes at room temperature for 24 hours. 10 μL samples from each were withdrawn and added to 1 mL brine to improve phase separation16 and placed in a 20 mL GC vial, which were then sealed with magnetic screw caps (Agilent). The head space of each sample was analyzed by solid phase microextraction (SPME) GC-MS.
To test for bromoform production E. coli cells were resuspended in 1 mL water/100 mL culture volume and 20% v/v of this cell suspension was added to a solution of substrate listed in Table 4 in addition to 100 mM HEPES (pH 7.4), 20 mM KBr, 1 mM Na3VO4, and 100 mM H2O2. Samples (1 mL) were incubated in sealed tubes at room temperature for 24 hours. 10 μL samples from each were withdrawn and added to 1 mL brine in a GC vial before sealing. The head space of each sample was analysed by solid phase microextraction (SPME) GC/MS as above. Bromoform was quantified by comparison with a standard curve prepared from authentic samples of bromoform as described above.

[2] = system: S. cerevisiae BY4741 transformed with pRS-ePST1-AmVHPO; assay: Bromoform synthesis by S. cerevisiae with peroxisome-targeted VHPO in SDUGGO media; format: cell-based, Saccharomyces cerevisiae; conditions: 0.1% oleic acid together with 3-amino-1,2,4-triazol
Method: 10 mL seed cultures of were inoculated with a single colony of BY4741 transformed with pRS-ePST1-AmVHPO in SD and grown at 220 rpm, 30° C. overnight. These were used to inoculate 10 mL cultures of SDUGGO media (uracil (0.67% yeast nitrogenous base without amino acids, 0.192% Merck yeast synthetic dropout medium supplement without uracil, 10% glycerol, 0.1% glucose, 100 mM KBr, 1 mM Na3VO4, 100 mM MOPS (pH 6.5), 0.1% oleic acid emulsified in 1% tergitol) at an initial OD600 of 2.0, and incubated for a further 24 hours at 220 rpm, 30° C. As with E. coli, samples were grown in 50 mL tubes with the lids closed to minimize the loss of bromoform by evaporation. Cells were harvested by centrifugation and resuspended in 1 mL of brine (6 M NaCl), transferred into 20 mL headspace GC vials and sealed with a magnetic screw cap before analysis by SPME-GC-MS.
With this plasmid in hand, the media was adapted to allow for maximum flux through beta-oxidation, incorporating both oleic acid to induce β-oxidation and glycerol as a non-repressing carbon source. A small amount of glucose (0.1%) was also included to stimulate initial cell growth, alongside Mops buffer (pH 6.5), which improved bromoform production compared with unbuffered cultures. KBr and Na3VO4 were also added to allow for VHPO activity.

[3] = system: E. coli transformed to express VHPO; assay: Bromoform biosynthesis in growing E. coli cultures expressing VHPO with inhibitors or oleic acid; format: cell-based, Escherichia coli; conditions: for production of bromoform in culture: 0.1% oleic acid, 1% tergitol, with amino-triazole to inhibit catalase; for bromoform observed in culture: 0.5 g/L tannic acid together with 10 mM 3-amino-1,2,4-triazole, 18 hours
Method: (§1) VHPO was expressed in E. coli isolate BL21 (DE3) as described above. Alongside IPTG (0.2 mM) the culture was also supplemented with 50 mM KBr, 1 mM Na3VO4, 10 mM 3-amino,1,2,4-triazole, and 0.5 g/L tannic acid or 0.1% oleic acid (emulsified with 1% tergitol (Merck, Ma USA)). Typically, 10 mL LB cultures were grown in 50 mL tubes with the lids closed. Vented tubes led to the loss of bromoform by evaporation. Cells were harvested by centrifugation and resuspended in 1 mL of brine (6 M NaCl), transferred into 20 mL headspace GC vials and sealed with a magnetic screw cap before analysis by SPME-GC-MS.
This strategy utilizes tannic acid to inhibit FabG to promote the accumulation acetoacyl-acyl-carrier-proteins (Wu et al., 2010), alongside 3-amino-1,2,4-triazol to inhibit catalase and promote the accumulation of H2O2(Meir and Yagil, 1985). FabG is β-ketoacyl-ACP reductase [EC 1.1.1.100], an enzyme that catalyses the reduction of acetoacyl-acyl carrier proteins during fatty acid synthesis. Catalase consumes the intracellular H2O2 which is required for VHPO activity. Both inhibitors were added to cultures E. coli transformed to express VHPO upon induction with IPTG. The VHPO gene from the marine cyanobacterium Acaryochloris marina MBIC110174 was synthesized by Epoch Life Science Inc. (Tx, USA) using the published gene sequence (GenBank Accession CP000828-nucleotides 5020736-5018817). This gene sequence was codon optimized for E. coli expression and cloned into expression vector pACYCDuet1 under the regulatory control of a LacI repressor and T7 promoter and terminator sequences. Cell growth was allowed to continue for 18 hours in the presence of these molecules with the addition of KBr and Na3VO4, before harvesting the cells by centrifugation and analysis of bromoform levels.
as §1, with “Alongside” for “VHPO was expressed in E. coli isolate BL21 (DE3) as described above. Alongside”

[4] = cited from earlier work
[5] = molecular target: T1, VHPO extracted from Corallina officinalis (Corallina officinalis, UniProt Q8LLW7); assay: Bromoform synthesis by extracted enzyme; format: biochemical; conditions: 0.1 U VHPO, 10 mM substrate, 50 mM KBr, 50 mM H2O2
T1 construct: VHPO extracted from Corallina officinalis (Sigma); purchased Sigma; host or cells: extracted from the red alga Corallina officinalis (natural source)
T1 sequence (Q8LLW7 1-598): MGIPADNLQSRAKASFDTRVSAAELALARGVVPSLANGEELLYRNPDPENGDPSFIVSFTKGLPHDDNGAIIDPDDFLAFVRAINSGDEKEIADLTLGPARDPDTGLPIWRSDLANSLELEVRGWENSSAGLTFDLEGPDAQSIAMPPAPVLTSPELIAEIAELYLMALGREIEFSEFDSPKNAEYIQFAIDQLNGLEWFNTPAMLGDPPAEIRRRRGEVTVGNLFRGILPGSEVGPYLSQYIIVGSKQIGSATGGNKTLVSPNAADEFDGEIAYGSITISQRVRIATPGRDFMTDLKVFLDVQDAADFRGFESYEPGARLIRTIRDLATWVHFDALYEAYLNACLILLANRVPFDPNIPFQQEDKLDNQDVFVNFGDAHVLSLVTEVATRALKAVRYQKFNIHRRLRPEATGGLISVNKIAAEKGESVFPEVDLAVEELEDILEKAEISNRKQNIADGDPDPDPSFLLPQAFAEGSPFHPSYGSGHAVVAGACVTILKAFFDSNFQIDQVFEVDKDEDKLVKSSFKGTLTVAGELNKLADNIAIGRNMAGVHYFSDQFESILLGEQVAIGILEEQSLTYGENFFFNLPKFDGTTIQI
Method: The whole reaction (100 μL) was transferred to a GC-Headspace vial and left at room temperature until analysis by SPME-GCMS as before. Relative bromoform levels were assessed as described above.

[6] = system: E. coli expressing the A. marina VHPO gene; assay: Bromoform production by E. coli cells expressing A. marina VHPO with Table 3 substrates (SPME-GC/MS); format: cell-based, Escherichia coli; conditions: 1 mM substrate, 50 mM H2O2, 24 hours room temperature; compared with the other samples of Table 3
Method: Transformed E. coli were then grown in LB with 30 μg/mL chloramphenicol at 37° C. 220 rpm, until OD600 ˜0.6. IPTG 0.2 mM was then added and the cultures transferred to 28° C. with shaking at 220 rpm for a further 18 hours. Cells were harvested by centrifugation and kept at −20° C. before further use.
To test for bromoform production E. coli cells were resuspended in 1 mL water/100 mL culture volume and 20% v/v of this cell suspension was added to a solution of substrate listed below in Table 3, 100 mM HEPES (pH 7.4), 20 mM KBr, 1 mM Na3VO4, and 50 mM H2O2. Samples (100 μL) were incubated in sealed GC vials at room temperature for 24 hours. The head space of each sample was analysed by solid phase microextraction (SPME) GC/MS using a 7890A series gas chromatograph, a 5975C inert XL MSD mass selective detector and a MPS2 Gerstel multipurpose autosampler. Bromoform was identified in samples by comparison of the retention time with an authentic standard (Sigma, USA) and by mass spectral matching using the NIST/EPA/NIH Mass Spectral Library (version 2014). Relative bromoform quantities were measured by integration of the m/z=250 signal in extracted ion chromatograms generated using Agilent Mass Hunter software (version 10.0).

[7] = system: E. coli expressing the A. marina VHPO gene; assay: Time course of bromoform production from acetylacetone by the E. coli cell suspension with repeated H2O2 addition; format: cell-based, Escherichia coli
Method: It was hypothesized that with sufficient hydrogen peroxide supply full conversion to bromoform could be achieved. To this end an additional reaction was set up with 10% E. coli cell suspension 100 mM HEPES (pH 7.4), 100 mM KBr, 1 mM Na3VO4, and 400 mM H2O2 added to initiate the reaction, then again after 2 and 4 hours. 10 μL of this reaction was sampled at 0, 20, 60, 120, 180, 240, and 360 minutes, the reaction was stopped by addition of 1 mL of ice cold brine and samples were stored in sealed GC vials at −20° C. before analysis by SPME-GC/MS as above. Bromoform was quantified by comparison with a standard curve prepared from authentic samples of bromoform, added to control samples (identical to the reaction, except containing no bromide), to account for matrix effects. The time course and standard curve is shown below in FIG. 7.

CCC(=O)CC(=O)CC [3,5-heptanedione]
bromoform production [1]: increase in bromoform production

Nc1nc[nH]n1 [3-amino-1,2,4-triazol]
bromoform detected in the cell pellet [2]: only when both oleic acid and 3-amino-1,2,4-triazol were added
production of bromoform in culture [3]: trace amounts
bromoform observed in culture [3]: only observed when both inhibitors were added

CC1(C)CC(=O)CC(=O)C1 [5,5-dimethyl-1,3-cyclohexanedione]
pKa (H2O solvent reference) [4]: 5.2 (Brodwell, personal
increase in bromoform concentration relative to acetone ([5]; listed as dimedone): 51 fold
increase in bromoform concentration relative to acetone ([5]; listed as dimidone): up to 50 fold
bromoform production [1]: increase in bromoform production

CC(=O)CC(C)=O [acetylacetone]
increase in bromoform production [6]: 10 fold
bromoform production [1]: increase in bromoform production
amount of bromoform synthesised ([7]; 400 mM H2O2 added at start and again after 2 and 4 hours): 5 mg/mL
conversion to bromoform (yield based on acetylacetone) ([7]; after three hours, 400 mM H2O2 added at start and again after 2 and 4 hours): 97%
part of acetylacetone converted rapidly to bromoform ([7]; initial phase of the reaction): Approximately half

CCOC(=O)CC(C)=O [ethyl acetoacetate]
pKa (H2O solvent reference) [4]: 10.7 (Brodwell, personal
bromoform production [1]: increase in bromoform production

CCCCCCCC/C=C\CCCCCCCC(=O)O [oleic acid]
bromoform detected in the cell pellet [2]: only when both oleic acid and 3-amino-1,2,4-triazol were added
production of bromoform in culture [3]: trace amounts

O=C(OC[C@H]1O[C@@H](OC(=O)c2cc(O)c(O)c(OC(=O)c3cc(O)c(O)c(O)c3)c2)[C@H](OC(=O)c2cc(O)c(O)c(OC(=O)c3cc(O)c(O)c(O)c3)c2)[C@@H](OC(=O)c2cc(O)c(O)c(OC(=O)c3cc(O)c(O)c(O)c3)c2)[C@@H]1OC(=O)c1cc(O)c(O)c(OC(=O)c2cc(O)c(O)c(O)c2)c1)c1cc(O)c(O)c(OC(=O)c2cc(O)c(O)c(O)c2)c1 [tannic acid]
bromoform observed in culture [3]: only observed when both inhibitors were added
